Test results taken from PubChem BioAssay (NCI).
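Step 1: Grow cells in 96-well plates. Step 2: Expose to compound for 48 hours at 5 concentrations. Step 3: Interpolate endpoints linearly; if unreached, use highest concentration. GI50: concentration for 50% inhibition of growth. TGI marks complete inhibition of growth.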

How the values were obtained:
Assay in all cases: growth of human tumour cells (NCI), 48 h
SF-268 CNS = tested on: SF-268 CNS
OVCAR-8 ovarian = tested on: OVCAR-8 ovarian
HOP-62 NSCLC = tested on: HOP-62 NSCLC
NCI-H460 lung = tested on: NCI-H460 lung
RXF 393 renal = tested on: RXF 393 renal
KM12 colon = tested on: KM12 colon
OVCAR-3 ovarian = tested on: OVCAR-3 ovarian
MOLT-4 leukemia = tested on: MOLT-4 leukemia
TK-10 renal = tested on: TK-10 renal
UO-31 renal = tested on: UO-31 renal

In the case of `Fc1ccc(-c2c(-c3ccncc3)n(CCN3CCOCC3)c3cccnc23)cc1`, the GI50 (SF-268 CNS) is reported as greater than 25 µM, the TGI (SF-268 CNS) is reported as greater than 25 µM and the GI50 (OVCAR-8 ovarian) is reported as greater than 25 µM. For the same compound, the TGI (OVCAR-8 ovarian) was greater than 25 µM, the GI50 (HOP-62 NSCLC) was greater than 25 µM and the TGI (HOP-62 NSCLC) was greater than 25 µM. The GI50 (NCI-H460 lung) was greater than 25 µM, the TGI (NCI-H460 lung) was greater than 25 µM and the GI50 (RXF 393 renal) was greater than 25 µM. It also gave a TGI (RXF 393 renal) greater than 25 µM, a GI50 (KM12 colon) greater than 25 µM and a TGI (KM12 colon) greater than 25 µM. The GI50 (OVCAR-3 ovarian) was greater than 25 µM, the TGI (OVCAR-3 ovarian) was greater than 25 µM and the GI50 (MOLT-4 leukemia) was greater than 25 µM. For the same compound, the TGI (MOLT-4 leukemia) was greater than 25 µM, the GI50 (TK-10 renal) was greater than 25 µM and the TGI (TK-10 renal) was greater than 25 µM. The GI50 (UO-31 renal) was greater than 5.79 µM and the TGI (UO-31 renal) was greater than 25 µM.
`COc1ccc(-c2nc(N)nc(-c3cc(C)ccc3O)c2Cl)cc1` was tested, and the TGI (SF-268 CNS) was greater than 100 µM, the TGI (OVCAR-8 ovarian) was greater than 100 µM and the TGI (HOP-62 NSCLC) was greater than 100 µM. For the same compound, the TGI (NCI-H460 lung) was greater than 100 µM, the TGI (RXF 393 renal) was 99.7 µM and the TGI (KM12 colon) was greater than 100 µM. For the same compound, the TGI (OVCAR-3 ovarian) was 89.8 µM, the TGI (MOLT-4 leukemia) was greater than 100 µM and the TGI (TK-10 renal) was 86.4 µM. The TGI (UO-31 renal) was greater than 100 µM.
For `COc1ccccc1OCC(COC(=O)Nc1ccc(C)cc1)OC(=O)Nc1ccc(C)cc1` (centres undefined), the TGI (SF-268 CNS) was 46.2 µM, the TGI (OVCAR-8 ovarian) was 38.4 µM and the TGI (HOP-62 NSCLC) was greater than 100 µM. It also gave a TGI (NCI-H460 lung) of 30.3 µM, a TGI (RXF 393 renal) of 20.2 µM and a TGI (KM12 colon) of 43.4 µM. It also gave a TGI (OVCAR-3 ovarian) of 33.9 µM, a TGI (MOLT-4 leukemia) of 48.8 µM and a TGI (TK-10 renal) of 47 µM. The TGI (UO-31 renal) was 34.3 µM.
In the case of `OCC(O)C(OC1OC(CO)C(O)C(O)C1O)c1nn(-c2ccc(F)cc2)c2nc3cc(Cl)c(Cl)cc3cc12` (centres undefined), the TGI (SF-268 CNS) is reported as greater than 100 µM, the TGI (OVCAR-8 ovarian) is reported as greater than 100 µM and the TGI (HOP-62 NSCLC) is reported as greater than 100 µM. It also gave a TGI (NCI-H460 lung) greater than 100 µM, a TGI (RXF 393 renal) greater than 100 µM and a TGI (KM12 colon) greater than 100 µM. It also gave a TGI (OVCAR-3 ovarian) greater than 100 µM, a TGI (MOLT-4 leukemia) greater than 100 µM and a TGI (TK-10 renal) greater than 100 µM. It also gave a TGI (UO-31 renal) greater than 100 µM.
Work on `COc1ccc2c3c([nH]c2c1)[C@H]1C[C@H]2[C@H](C[C@@H](O)[C@H](OC)[C@H]2C(=O)O)CN1CC3` yielded a TGI (SF-268 CNS) greater than 100 µM, a TGI (OVCAR-8 ovarian) greater than 100 µM and a TGI (HOP-62 NSCLC) greater than 100 µM. For the same compound, the TGI (NCI-H460 lung) was greater than 100 µM, the TGI (RXF 393 renal) was greater than 100 µM and the TGI (KM12 colon) was greater than 100 µM. For the same compound, the TGI (OVCAR-3 ovarian) was greater than 100 µM, the TGI (MOLT-4 leukemia) was greater than 100 µM and the TGI (TK-10 renal) was greater than 100 µM. For the same compound, the TGI (UO-31 renal) was greater than 100 µM.
In the case of `CC(C)S(=O)(=O)n1c(N)nc2ccc(/C(=N/O)c3ccccc3)cc21`, the TGI (SF-268 CNS) is reported as greater than 100 µM, the TGI (OVCAR-8 ovarian) is reported as greater than 100 µM and the TGI (HOP-62 NSCLC) is reported as 40.8 µM. For the same compound, the TGI (NCI-H460 lung) was greater than 100 µM, the TGI (RXF 393 renal) was 45.5 µM and the TGI (KM12 colon) was 45.8 µM. It also gave a TGI (OVCAR-3 ovarian) of 50.6 µM, a TGI (MOLT-4 leukemia) of 52.2 µM and a TGI (TK-10 renal) greater than 100 µM. It also gave a TGI (UO-31 renal) of 47 µM.
`O=C(O)CCN1C(=O)/C(=C/C(Cl)=C/c2ccccc2)SC1=S` showed a GI50 (SF-268 CNS) of 3.15 µM, a TGI (SF-268 CNS) of 20.2 µM and a GI50 (OVCAR-8 ovarian) of 3.27 µM. The TGI (OVCAR-8 ovarian) was 22.2 µM, the GI50 (HOP-62 NSCLC) was 3.74 µM and the TGI (HOP-62 NSCLC) was 13.3 µM. For the same compound, the GI50 (NCI-H460 lung) was 3.21 µM, the TGI (NCI-H460 lung) was 10.8 µM and the GI50 (RXF 393 renal) was 1.69 µM. The TGI (RXF 393 renal) was 3.38 µM, the GI50 (KM12 colon) was 2.01 µM and the TGI (KM12 colon) was 4.64 µM. For the same compound, the GI50 (OVCAR-3 ovarian) was 2.41 µM, the TGI (OVCAR-3 ovarian) was 7.01 µM and the GI50 (MOLT-4 leukemia) was 1.98 µM. For the same compound, the TGI (MOLT-4 leukemia) was 8.12 µM, the GI50 (TK-10 renal) was 4.19 µM and the TGI (TK-10 renal) was 9.59 µM. It also gave a GI50 (UO-31 renal) of 1.56 µM and a TGI (UO-31 renal) of 3.06 µM.
With `CC(C)=CCC[C@](C)(O)[C@H]1CC[C@]2(C)[C@@H]1CC[C@@H]1[C@@]3(C)CC[C@H](OC(=O)CCC(=O)O)C(C)(C)[C@@H]3CC[C@]12C` the GI50 (SF-268 CNS) was 29.9 µM, the TGI (SF-268 CNS) was greater than 100 µM and the GI50 (OVCAR-8 ovarian) was 35.5 µM. For the same compound, the TGI (OVCAR-8 ovarian) was greater than 100 µM, the GI50 (HOP-62 NSCLC) was 37.6 µM and the TGI (HOP-62 NSCLC) was greater than 100 µM. It also gave a GI50 (NCI-H460 lung) of 36.4 µM, a TGI (NCI-H460 lung) greater than 100 µM and a GI50 (RXF 393 renal) of 17.4 µM. The TGI (RXF 393 renal) was 85 µM, the GI50 (KM12 colon) was 18.5 µM and the TGI (KM12 colon) was 41.2 µM. The GI50 (OVCAR-3 ovarian) was 15.9 µM, the TGI (OVCAR-3 ovarian) was 30.9 µM and the GI50 (MOLT-4 leukemia) was 21 µM. The TGI (MOLT-4 leukemia) was 94 µM, the GI50 (TK-10 renal) was 87.8 µM and the TGI (TK-10 renal) was greater than 100 µM. The GI50 (UO-31 renal) was 13.7 µM and the TGI (UO-31 renal) was 28 µM.
With `O=C(O)C(O)C(O)C1[O][Sb][O]C1CO` (centres undefined) the GI50 (SF-268 CNS) was greater than 100 µM, the TGI (SF-268 CNS) was greater than 100 µM and the GI50 (OVCAR-8 ovarian) was greater than 100 µM. For the same compound, the TGI (OVCAR-8 ovarian) was greater than 100 µM, the GI50 (HOP-62 NSCLC) was greater than 100 µM and the TGI (HOP-62 NSCLC) was greater than 100 µM. The GI50 (NCI-H460 lung) was greater than 100 µM, the TGI (NCI-H460 lung) was greater than 100 µM and the GI50 (RXF 393 renal) was greater than 100 µM. For the same compound, the TGI (RXF 393 renal) was greater than 100 µM, the GI50 (KM12 colon) was greater than 100 µM and the TGI (KM12 colon) was greater than 100 µM. It also gave a GI50 (OVCAR-3 ovarian) greater than 100 µM, a TGI (OVCAR-3 ovarian) greater than 100 µM and a GI50 (MOLT-4 leukemia) greater than 100 µM. It also gave a TGI (MOLT-4 leukemia) greater than 100 µM, a GI50 (TK-10 renal) greater than 100 µM and a TGI (TK-10 renal) greater than 100 µM. For the same compound, the GI50 (UO-31 renal) was greater than 100 µM and the TGI (UO-31 renal) was greater than 100 µM.
Compound `C[C@@H]1CC[C@H]2C(CN3CCN(CC4=C(C(F)(F)F)O[C@@H]5O[C@@]6(C)CC[C@H]7[C@H](C)CC[C@@H]4[C@@]57OO6)CC3)=C(C(F)(F)F)O[C@@H]3O[C@@]4(C)CC[C@@H]1[C@]32OO4` has a GI50 (SF-268 CNS) of 4.24 µM, a TGI (SF-268 CNS) greater than 100 µM and a GI50 (OVCAR-8 ovarian) of 2.29 µM. The TGI (OVCAR-8 ovarian) was greater than 100 µM, the TGI (HOP-62 NSCLC) was greater than 46.9 µM and the GI50 (NCI-H460 lung) was 3.14 µM. It also gave a TGI (NCI-H460 lung) greater than 100 µM, a GI50 (RXF 393 renal) of 1.05 µM and a TGI (RXF 393 renal) greater than 54.3 µM. For the same compound, the GI50 (KM12 colon) was 0.944 µM, the TGI (KM12 colon) was greater than 26.6 µM and the GI50 (OVCAR-3 ovarian) was 1.84 µM. For the same compound, the TGI (OVCAR-3 ovarian) was greater than 24.9 µM, the GI50 (MOLT-4 leukemia) was 5.35 µM and the TGI (MOLT-4 leukemia) was greater than 100 µM. It also gave a GI50 (TK-10 renal) of 4.2 µM, a TGI (TK-10 renal) of 99.7 µM and a GI50 (UO-31 renal) of 2.67 µM. It also gave a TGI (UO-31 renal) of 85.8 µM.
For `COc1cc(C(=O)c2c(-c3ccccc3)oc3ccccc23)cc(OC)c1O`, the GI50 (SF-268 CNS) was 3.4 µM, the TGI (SF-268 CNS) was 18.6 µM and the GI50 (OVCAR-8 ovarian) was 4.8 µM. For the same compound, the TGI (OVCAR-8 ovarian) was 83.9 µM, the GI50 (HOP-62 NSCLC) was 7.3 µM and the TGI (HOP-62 NSCLC) was 23.4 µM. It also gave a GI50 (NCI-H460 lung) of 2.22 µM, a TGI (NCI-H460 lung) of 10.7 µM and a GI50 (RXF 393 renal) of 1.76 µM. It also gave a TGI (RXF 393 renal) of 8.95 µM, a GI50 (KM12 colon) of 3.99 µM and a TGI (KM12 colon) of 16.5 µM. For the same compound, the GI50 (OVCAR-3 ovarian) was 1.11 µM, the TGI (OVCAR-3 ovarian) was 5.21 µM and the GI50 (MOLT-4 leukemia) was 2.69 µM. For the same compound, the TGI (MOLT-4 leukemia) was 22.2 µM, the GI50 (TK-10 renal) was 20.5 µM and the TGI (TK-10 renal) was greater than 100 µM. It also gave a GI50 (UO-31 renal) of 3.14 µM and a TGI (UO-31 renal) of 19.4 µM.
